We go through 20 compounds from US11332438B2, “Creatine prodrugs, compositions and methods of use thereof” (Ultragenyx Pharmaceutical Inc., priority 2017, dated 2022).

Data set [1] in a line: Chemical stability in simulated gastric fluid (SGF) without pepsin. The class given is physicochemical. The following applies: 50 μM prodrug. As for the experimental part: (§1) Chemical stability of creatine prodrugs in phosphate buffered saline (PBS), simulated intestinal fluid (SIF) without pancreatin, simulated gastric fluid (SGF) without pepsin were determined by LC-UV, LC-CAD, LC-UV-CAD or LC-MS/MS as appropriate. Creatine prodrugs of the present disclosure (50 μM) were incubated at 37° C. according to described protocols and prodrug levels were compared between t=0, t=15, t=60, and t=120 mins by peak area ratio to determine the percentage remained at t=120 mins (2 h).
(§2) Protocol for PBS, SIF and SGF stability for screening:
(§3) Prodrugs (50 μM) were incubated in PBS, FaSSIF (Biorelevant) or FaSSGF (Biorelevant) at 37° C.

A short description of data set [2]: Plasma stability, human plasma. Type of data set: in vitro ADME. The settings on record: for half-life: 37 °C, read-out: Plasma Stability Human t1/2. How it is done: (§4) The stabilities of creatine prodrugs can be evaluated in one or more in vitro systems using a variety of preparations following methods known in the art. Experimental conditions useful for the in vitro studies are described in Table 1. Prodrug is added to each preparation in triplicate. […]
(§5) Protocol for plasma stability for early screen macrocycles (Method A):
(§6) Frozen plasma was thawed by placing at 37° C. quickly and centrifuged at 3,000 rpm for 8 minutes to remove clots. Then the supernatant was pipetted and pooled as the plasma to be used in the experiment. The plasma was placed on ice until used. The test compounds and reference compounds spiking solution was prepared as a 2.5 mM test compounds spiking solution A: Add 20 μL of 10 mM test compounds stock solution to 60 μL DMSO. 0.1 mM Spiking solution B was prepared: Add 40 μL of spiking solution A to 960 μL of […] Sodium phosphate buffer with 0.5% BSA. […] For 0-min, 400 μL of ACN containing IS was added to the wells of 0-min plate and then 90 μL of plasma was added. […] 50 μL of the supernatant was transferred from each well into a 96-well sample plate containing 120 μL of ultra pure water (Millipore, ZMQS50F01) and analyzed by LC/MS.
(§7) Protocol for plasma stability (Method B):
(§8) The frozen plasma was thawed in a 37° C. water bath and then, if needed, adjusted to pH=7.4 then preheated in a 37° C. incubator. The test article was dissolved in 10% DMSO/water and spiked into plasma pre-plated into 96 well plates at a final concentration of 1 μM. Discrete incubations were performed at 37° C. and included 5 time points: t=0, 2, 5, 15, and 30 min. Samples were then crashed with 4× volume, ice cold 20% water/80% acetonitrile and spun at 4000 g for 10 mins. The supernatant was dried down and reconstituted with water and analyzed by LC-MS/MS. The half life in minute was calculated.

Data set [3] in a line: Chemical stability in phosphate buffered saline (PBS). Type of data set: physicochemical. The following applies: 50 μM prodrug. As for the experimental part:
as §1, §2, §3

Data set [4] can be described thus: Plasma stability, mouse plasma. Type of data set: in vitro ADME. The settings on record: for half-life: 37 °C, read-out: Plasma Stability Mouse t1/2. How it is done: as §4, §5, §6, §7, §8
Data set [5] can be described thus: Liver microsome stability, mouse. The class given is in vitro ADME. The settings on record: liver microsomes, read-out: Microsome Stability Mouse t1/2. As for the experimental part:
as §4
(§9) Protocol for Microsomal Stability:
(§10) For reference compound, a 500 μM spiking solution was prepared: add 10 μL of 10 mM DMSO stock solution into 190 μL ACN. […] For test compound, a 5 mM spiking solution was prepared: add 10 μL of 10 mM DMSO stock solution into 10 μL ACN. […] NADPH stock solution (6 mM) was prepared by dissolving NADPH into buffer 0.1 M Potassium Phosphate buffer, 1.0 mM EDTA, pH 7.4. […] For 0-min, 135 μL of ACN containing IS was added to the wells of 0-min plate and then 15 μL of NADPH stock solution (6 mM) was added. 15 μL of NADPH stock solution (6 mM) was added to the samples designated as 0-, 5-, 10-, 20-, 30-min, 60-min; 15 μL of buffer 0.1 M Potassium Phosphate buffer, 1.0 mM EDTA, pH 7.4, was added to the samples designated as 60-min without NADPH. At 5-min, 10-min, 20-min, and 30-min, 60-min 135 μL of ACN containing IS was added to the wells of corresponding plates, respectively, to stop the reaction. […] 50 μL of the supernatant from each well was transferred into a 96-well sample plate containing 50 μL of ultra pure water (Millipore, ZMQS50FOI) and analyzed by LC/MS.

The nature of data set [6]: Liver microsome stability, human. Type of data set: in vitro ADME. The following applies: liver microsomes, read-out: Microsome Stability Human t1/2. How it is done:
as §4, §9, §10

A value given as a limit tells only on which side of the number the result lay.

As for `[2H]C([2H])([2H])N(CCO)C(=N)NC(=O)CCCCCCCCCC` [Compound 9], in data set [1] (Table 2A), the “Chemical Stability SGF, no enzyme % T0 at 2 hours at 37 °C.” value (shortened to “Chemical Stability SGF, no enzyme % T0”) was 99%. The half-life in data set [2] (Table 2A) was > 3 h; in data set [4] (Table 2A), 0.55 h. The “Chemical Stability PBS % T0 at 2 hours at 37 °C.” value (from here on “Chemical Stability PBS % T0”) in data set [3] (Table 2A) is listed as 0%. For the same compound, the half-life at 10 μM in data set [5] (pH 7.4, Table 2A) was < 0.0833 h; in data set [6] (pH 7.4, Table 2A), < 0.0833 h.

As for `[2H]C([2H])([2H])N(CC(=O)O)C(=N)NC(=O)c1cccnc1` [Compound 21], the “Chemical Stability SGF, no enzyme % T0” value in data set [1] (Table 2A) is reported as 74%. Moreover, the half-life in data set [2] (Table 2A) and in data set [4] (Table 2A) was > 3 h in each case. The “Chemical Stability PBS % T0” value in data set [3] (Table 2A) was 105%. Moreover, the half-life at 10 μM in data set [5] (pH 7.4, Table 2A) was > 2.42 h; in data set [6] (pH 7.4, Table 2A) it was > 2.42 h.

Turning to `[2H]C([2H])([2H])N(CC(=O)[O-])C(=N)NC(=O)CCCC/C=C\CCCCCCCCCCC.[Na+]` [Compound 25], the “Chemical Stability SGF, no enzyme % T0” value in data set [1] (Table 2A) is 72%. The half-life in data set [2] (Table 2A) and in data set [4] (Table 2A) was > 3 h each time. In addition, in data set [3] (Table 2A), the “Chemical Stability PBS % T0” value was determined as 89%. Also, the half-life at 10 μM in data set [5] (pH 7.4, Table 2A) is > 2.42 h; in data set [6] (pH 7.4, Table 2A) it was > 2.42 h.

Regarding `[2H]C([2H])([2H])N(CC(=O)[O-])C(=N)NC(=O)CCCCC/C=C\CCCCCCCCCC.[Na+]` [Compound 26], the “Chemical Stability SGF, no enzyme % T0” value in data set [1] (Table 2A) is reported as 95%. Moreover, the half-life in data set [2] (Table 2A) and in data set [4] (Table 2A) was > 3 h each time. In addition, the “Chemical Stability PBS % T0” value in data set [3] (Table 2A) worked out at 45%. In addition, the half-life at 10 μM is > 2.42 h in data set [5] (pH 7.4, Table 2A) and 1.13 h in data set [6] (pH 7.4, Table 2A).

As to `[2H]C([2H])([2H])N(CC(=O)[O-])C(=N)NC(=O)CCCCCCCCCC/C=C\CCCCC.[Na+]` [Compound 27], in data set [1] (Table 2A), the “Chemical Stability SGF, no enzyme % T0” value is 96%. The half-life in data set [2] (Table 2A) and in data set [4] (Table 2A) was > 3 h in each case. For the same compound, the “Chemical Stability PBS % T0” value in data set [3] (Table 2A) is 67%. For the same compound, the half-life at 10 μM was found to be 0.167 h in data set [5] (pH 7.4, Table 2A) and 0.233 h in data set [6] (pH 7.4, Table 2A).

In the case of `[2H]C([2H])([2H])N(CC(=O)[O-])C(=N)NC(=O)CCCCCCCCCC.[Na+]` [Compound 32], the half-life in data set [2] (Table 2A) and in data set [4] (Table 2A) was > 3 h in each case. The half-life at 10 μM in data set [5] (pH 7.4, Table 2A) is > 2.42 h; in data set [6] (pH 7.4, Table 2A), 1.83 h.

For the compound `[2H]C([2H])([2H])N(CC(=O)O)C(=NC(=O)OC(C)(C)C)NC(=O)CCCCCCCCCC` [Compound 34], the half-life in data set [2] (Table 2A) and in data set [4] (Table 2A) was > 3 h each time. Further, the half-life at 10 μM was 2.05 h in data set [5] (pH 7.4, Table 2A) and > 3 h in data set [6] (pH 7.4, Table 2A).

Turning to `[2H]C([2H])([2H])N(CC(=O)[O-])C(=N)NC(=O)CCCCCCC.[Li+]` [Compound 37], the half-life in data set [2] (Table 2A) and in data set [4] (Table 2A) was > 3 h in each case. For the same compound, the half-life at 10 μM was > 2.42 h in data set [5] (pH 7.4, Table 2A) and 1.9 h in data set [6] (pH 7.4, Table 2A).

As to `Cl.[2H]C([2H])([2H])N(CC(=O)OCc1oc(=O)oc1C)C(=N)NC(=O)CCCCCCCCCC` [Compound 48], the “Chemical Stability SGF, no enzyme % T0” value in data set [1] (Table 2A) is listed as 98%. Further, in data set [3] (Table 2A), the “Chemical Stability PBS % T0” value is recorded as 97%.

`Cl.[2H]C([2H])([2H])N(CC(=O)OC(C)C(C)(C)C)C(=N)NC(=O)CCCCCC` (stereo not shown) [Compound 53]: in data set [1] (Table 2B), the “Chemical Stability SGF, no enzyme % T0” value is on record as 91%. Moreover, in data set [3] (Table 2B), the “Chemical Stability PBS % T0” value was 64%.

On to `Cl.[2H]C([2H])([2H])N(CC(=O)OC(C)(C)C(F)(F)F)C(=N)NC(=O)CCCCCC` [Compound 55], for which, in data set [1] (Table 2B), the “Chemical Stability SGF, no enzyme % T0” value is 94%. In addition, the “Chemical Stability PBS % T0” value in data set [3] (Table 2B) is 97%.

Turning to `[2H]C([2H])([2H])N(CC(=O)[O-])C(=N)NC(=O)CCCCCCCCCO.[Na+]` [Compound 58], the half-life in data set [2] (Table 2B) and in data set [4] (Table 2B) was > 3 h each time. Besides, the half-life at 10 μM was > 1.5 h in data set [5] (pH 7.4, Table 2B) and > 1.5 h in data set [6] (pH 7.4, Table 2B).

On to `Cl.[2H]C([2H])([2H])N(CC(=O)OC(C)(C)C(F)(F)F)C(=N)NC(=O)CCCCCCCCCC` [Compound 59], for which, in data set [1] (Table 2B), the “Chemical Stability SGF, no enzyme % T0” value is 30%. In addition, in data set [3] (Table 2B), the “Chemical Stability PBS % T0” value was determined as 101%.

Regarding `O=CO.[2H]C([2H])([2H])N1CC(=O)OCCCCCCCC(=O)NC1=N` [Compound BB, 5-imino-4-trideuteriomethylguanidino-1-oxa-4,6-diazacyclotetradecane-2,7-dione Formate], the “Plasma Stability Human t1/2” value in data set [2] stood at 9 min. Besides, in data set [4], the “Plasma Stability Mouse t1/2” value was <2 min.

With `[2H]C([2H])([2H])N1CC(=O)OCCCCCCCCC(=O)NC1=N` [Compound DD, 5-imino-4-trideuteriomethyl-1-oxa-4,6-diazacyclopentadecane-2,7-dione], the half-life in data set [2] (Table 2C, macrocycles) is 0.138 h; in data set [4] (Table 2C, macrocycles) it was < 0.0333 h.

Regarding `Cl.[2H]C([2H])([2H])N1CC(=O)OC(C)CCCCCCCCCC(=O)NC1=N` (stereo not shown) [Compound K, 5-imino-4-trideuteriomethylguanidino-17-dimethyl-1-oxa-4,6-diazacycloheptadecane-2,7-dione Dihydrochloride], the half-life in data set [2] (Table 2C, macrocycles) was determined as 0.217 h; in data set [4] (Table 2C, macrocycles), 0.0333 h.

For `Cl.[2H]C([2H])([2H])N1CC(=O)OC(CC)CCCCCCCCCC(=O)NC1=N` (stereo not shown) [Compound L, 17-ethyl-5-imino-4-trideuteriomethyl-1-oxa-4,6-diazacycloheptadecane-2,7-dione Hydrochloric Acid Salt], the half-life in data set [2] (Table 2C, macrocycles) was determined as 0.567 h; in data set [4] (Table 2C, macrocycles), 0.05 h. Besides, the half-life at 10 μM in data set [5] (pH 7.4, Table 2C) came out at 0.01 h; in data set [6] (pH 7.4, Table 2C) it was 0.0267 h.

Regarding `Cl.[2H]C([2H])([2H])N1CC(=O)O[C@@H](C)CCCCCCCCCC(=O)NC1=N` [Compound PP, (S)-5-imino-17-methyl-4-(methyl-d3)-1-oxa-4,6-diazacycloheptadecane-2,7-dione Hydrochloride], the half-life in data set [2] (Table 2C, macrocycles) was determined as 0.133 h; in data set [4] (Table 2C, macrocycles), 0.0183 h.

Turning to `[2H]C([2H])([2H])N1CC(=O)OCCCCCCCCCCCC(=O)NC1=N` [Compound QQ, 5-imino-4-trideuteriomethyl-1-oxa-4,6-diazacyclooctadecane-2,7-dione], the “Chemical Stability SGF, no enzyme % T0” value in data set [1] (Table 2C) is listed as 79%. The “Chemical Stability PBS % T0” value in data set [3] (Table 2C) was 85%. For the same compound, the half-life at 10 μM in data set [5] (pH 7.4, Table 2C) worked out at 0.0667 h; in data set [6] (pH 7.4, Table 2C), 0.15 h.

Regarding `O=CO.[2H]C([2H])([2H])N1CC(=O)OCCCCCCCCCC(=O)NC1=N` [Compound SS, 5-imino-4-trideuteriomethyl-1-oxa-4,6-diazacyclohexadecane-2,7-dione Formic Acid Salt], the “Chemical Stability SGF, no enzyme % T0” value in data set [1] (Table 2C) is listed as 85%. Further, the half-life in data set [2] (Table 2C, macrocycles) was > 1.5 h. Also, the “Chemical Stability PBS % T0” value in data set [3] (Table 2C) is on record as 0%.
